Test results: patent US10000437B2, “Nitrogen containing surfactants with alkoxylation on the hydroxyl group of fatty chains” (Akzo Nobel Chemicals International B.V., priority 2013, dated 2018)

How the values were obtained:
Type in all cases: in vivo
morning glory = experiment: Greenhouse trial: castor oil ethoxylate derivatives with glyphosate, morning glory (Example 25); conditions: 300 g ae/HA glyphosate; 4 weeks after treatment; ranking from picture
Protocol: (§1) A greenhouse trial was conducted by spraying solutions of 300 g ae/HA of IPA-glyphosate on wheat. The glyphosate formulation was based on 360 g/L IPA containing 10% active surfactant. Wheat was used as the “weed” because it germinates smoothly and it is a good species for herbicide study. The untreated check (UTC) was sprayed with only water. Pot 150 was sprayed with glyphosate only solution. Pot 149 was sprayed with glyphosate solution containing tallowamine-15EO (TAE15). TAE15 is the most common surfactant used to enhance glyphosate efficacy.
The condition and treatment of example 25 was identical to example 23 except that example 25 used morning glory instead of wheat.

wheat [1] = experiment: Greenhouse trial: bioefficacy enhancing effect of surfactants on glyphosate, wheat (Example 23); conditions: 300 g ae/HA IPA-glyphosate sprayed on wheat; 360 g/L IPA formulation with 10% active surfactant; 4 weeks after treatment; from fresh weight
Protocol: as §1
Plants were sprayed with glyphosate solutions containing surfactant according to the present invention. Table below lists the various surfactants and their corresponding pots. Percent growth control data for 4 weeks after treatment is also shown in this table as well. Percent growth control data was obtained from the fresh weight of these plants. The data clearly indicates glyphosate solutions containing surfactant according to the present invention provides better growth control than glyphosate only, thus acting as an adjuvant. In many cases the adjuvancy is equal to that of TAE15.

wheat [2] = experiment: Greenhouse trial: hydroxylated soybean oil derivatives with glyphosate, wheat, visual inspection (Example 24); conditions: 300 g ae/HA IPA-glyphosate sprayed on wheat, 10% active surfactant, 4 weeks after treatment
Protocol: as §1
A separate set of test was conducted for these surfactants. The condition and treatment of example 24 was identical to example 23. […] In this case % growth control is a qualitative data obtained by visual inspection of the plants. The data clearly indicates glyphosate solutions containing surfactant according to the present invention provides enhanced growth control than glyphosate only, thus acting as an adjuvant.

CC(C)N.O=C(O)CNCP(=O)(O)O [IPA Glyphosate alone, IPA-glyphosate]
morningglory control compared with tallowamine-15EO (morning glory): didn't show much control | % Growth Control (wheat [1]): 66% | % Growth Control (qualitative) (wheat [2]): 55%
